Source: ChEMBL document CHEMBL1153871, “Antiplasmodial and antitrypanosomal activities of aminobicyclo[2.2.2]octyl omega-aminoalkanoates” (Eur J Med Chem, 2009)

Tests used:
L6 = assay: Cytotoxicity against rat L6 cells; format: cell-based
[1] = system: Trypanosoma brucei rhodesiense; assay: Antitrypanosomal activity against Trypanosoma brucei rhodesiense STIB900 by microplate assay; format: functional, organism-based
Plasmodium falciparum = assay: Antimalarial activity against chloroquine and pyrimethamine-resistant Plasmodium falciparum K1; format: functional, organism-based
[2] = Selectivity index, ratio of IC50 for rat L6 cells to IC50 for Trypanosoma brucei rhodesiense STIB900; format: toxicity, cell-based; conditions: read-out: Ratio IC50

SMILES	IC50 (L6; Rattus norvegicus, L6) [µM]	IC50 ([1]; Trypanosoma brucei, STIB900) [µM]	IC50 (Plasmodium falciparum; Plasmodium falciparum, K1) [µM]	IC50 (L6; l6) [µM]	IC50 [1] [µM]	IC50 (Plasmodium falciparum) [µM]	selectivity ratio [2]
O=C(CCN1CCCC1)OC1CC2(N3CCCC3)CC(c3ccccc3)C1C(c1ccccc1)C2 (racemic)	21.9	0.12	0.37	–	–	–	–
O=C(CCN1CCC(O)CC1)OC1CC2(N3CCCCC3)CC(c3ccccc3)C1C(c1ccccc1)C2 (racemic)	28.5	0.98	0.17	–	–	–	–
O=C(CCN1CCCC1)OC1CC2(N3CCCCC3)CC(c3ccccc3)C1C(c1ccccc1)C2 (racemic)	12.5	0.38	0.25	–	–	–	–
CN(C)C12CC(OC(=O)CN3CCC(O)CC3)C(C(c3ccccc3)C1)C(c1ccccc1)C2 (racemic)	102	2.06	2.16	–	–	–	–
O=C(CN1CCCCC1)OC1CC2(N3CCCCC3)CC(c3ccccc3)C1C(c1ccccc1)C2 (racemic)	–	–	–	> 185	5.42	1.41	–
O=C(CN1CCC(O)CC1)OC1CC2(N3CCCCC3)CC(c3ccccc3)C1C(c1ccccc1)C2 (racemic)	> 179	3.81	–	–	–	–	–
O=C(CCN1CCCCC1)OC1CC2(N3CCCC3)CC(c3ccccc3)C1C(c1ccccc1)C2 (racemic)	17.8	0.31	0.28	–	–	–	–
O=C(CCN1CCC(O)CC1)OC1CC2(N3CCCC3)CC(c3ccccc3)C1C(c1ccccc1)C2 (racemic)	35.6	1.43	1.91	–	–	–	–
CCN(CC)CC(=O)OC1CC2(N3CCCCC3)CC(c3ccccc3)C1C(c1ccccc1)C2 (racemic)	–	–	–	61.3	1.53	0.77	–
CN(C)C12CC(OC(=O)CCN3CCCCC3)C(C(c3ccccc3)C1)C(c1ccccc1)C2 (racemic)	25.8	0.21	0.4	–	–	–	–
CCN(CC)CCC(=O)OC1CC2(N3CCCCC3)CC(c3ccccc3)C1C(c1ccccc1)C2 (racemic)	22.9	0.15	0.19	–	–	–	–
CN(C)C12CC(OC(=O)CCN3CCCC3)C(C(c3ccccc3)C1)C(c1ccccc1)C2 (racemic)	25.9	0.076	0.55	–	–	–	341
CCN(CC)CCC(=O)OC1CC2(N3CCCC3)CC(c3ccccc3)C1C(c1ccccc1)C2 (racemic)	19.2	0.11	0.3	–	–	–	–
O=C(CCN1CCCCC1)OC1CC2(N3CCCCC3)CC(c3ccccc3)C1C(c1ccccc1)C2 (racemic)	54.6	0.91	0.26	–	–	–	–
O=C(CN1CCC(O)CC1)OC1CC2(N3CCCC3)CC(c3ccccc3)C1C(c1ccccc1)C2 (racemic)	93.4	1.05	0.86	–	–	–	–
O=C(CN1CCCC1)OC1CC2(N3CCCCC3)CC(c3ccccc3)C1C(c1ccccc1)C2 (racemic)	–	–	–	52	0.88	0.74	–
CN(C)C12CC(OC(=O)CCN3CCC(O)CC3)C(C(c3ccccc3)C1)C(c1ccccc1)C2 (racemic)	89.2	0.95	2.25	–	–	–	–
Nc1nc(N)nc(Nc2ccc([As]3SCC(CO)S3)cc2)n1 (stereo not given) [MELARSOPROL]	–	0.005	–	–	–	–	–
CCN(CC)CCC(=O)OC1CC2(N(C)C)CC(c3ccccc3)C1C(c1ccccc1)C2 (racemic)	23.6	0.11	0.43	–	–	–	–
